Test results reported in US4665056A, “Dihydroorotic acid derivative and processes for preparing the same” (Tanabe Seiyaku Co., Ltd., priority 1984, dated 1987).

Tests used:
[1] = system: male STD/ddY mice; experiment: Antagonistic effect on pentobarbital anesthesia, intravenous administration; format: in vivo; conditions: intravenous administration 10 min after pentobarbital sodium 55 mg/kg i.p., TRH taken as 1
Description: (§1) The pharmacological activities of test compounds estimated by parenteral administration.
Pentobarbital sodium was intraperitoneally administered to male STD/ddY mice at a dose of 55 mg/kg. Ten minutes after the administration of pentobarbital sodium, a test compound dissolved in a physiological saline solution was intravenously administered to the mice which had lost the righting reflex. The duration of anesthesia was measured as the time from the end of administration of the test compound until the righting reflex regained. A physiological saline solution was administered to the control group of mice instead of the test compound solution.

[2] = system: male STD/ddY mice; experiment: Potentiating effect on action of Dopamine (L-Dopa in reserpinized mice); format: in vivo; conditions: intraperitoneal administration, reserpine 3 mg/kg s.c. and L-Dopa 200 mg/kg i.p., TRH taken as 1
Description: as §1
Reserpine was subcutaneously administered to male STD/ddY mice at a dose of 3 mg/kg, and about 16 to 20 hours later, L-Dopa was intraperitoneally administered to the mice at a dose of 200 mg/kg. Thirty minutes after administration of L-Dopa, a test compound dissolved in a physiological saline solution was administered intraperitoneally to the mice (when TRH was used as the test compound, it was administered 45 minutes after administration of L-Dopa). Spontaneous locomotor activity was measured by ANIMEX (i.e., an apparatus for mesuring spontaneous locomotor activity; manufactured by FERAD Co.) for 15 minutes starting from one hour after administration of L-Dopa. A physiological saline solution was administered to the control group of mice instead of the test compound solution.

[3] = system: male STD/ddY mice; experiment: Increasing effect on spontaneous locomotor activity, intraperitoneal administration; format: in vivo; conditions: measured for 60 minutes, TRH taken as 1
Description: (§2) Male STD/ddY mice were individually placed in Ambulometer (i.e., an apparatus for measuring spontaneous locomotor activity; manufactured by OHARA IKA Co.) for 30 minutes to acclimatize to the apparatus. Thereafter, a test compound dissolved in distilled water was orally administered to the mice and, immediately after administration of the test compound, the spontaneous locomotor activity was measured for 3 hours. Distilled water was administered to the control group of mice instead of the test compound solution.
as §1
(§3) The experiments were carried out in the same manner as described in Experiment 1 except that a test compound dissolved in a physiological saline solution was administered intraperitoneally to mice and, in estimating the increasing effect on spontaneous locomotor activity, said spontaneous locomotor activity was measured for 60 minutes immediately after administration of the test compound.

[4] = system: male STD/ddY mice; experiment: Antagonistic effect on reserpine-induced hypothermia, intraperitoneal administration; format: in vivo; conditions: TRH taken as 1, parallel line assay method
Description: (§4) A test compound dissolved in distilled water was orally administered to the mice, and the rectal temperature was measured 30, 60, 120, 180 and 300 minutes after the administration of the test compound. The increase in the body temperature of the medicated group of mice was compared with that of the control group of mice which received distilled water instead of the test compound solution.
as §1, §3

[5] = system: male STD/ddY mice; conditions: published data (Brain Research Reviews 4, 389 (1982)); cited from earlier work
[6] = system: male STD/ddY mice; experiment: Antagonistic effect on reserpine-induced hypothermia, oral administration; format: in vivo; conditions: TRH tartrate taken as 1, parallel line assay method
Description: (§5) The pharmacological activities of test compounds estimated by oral administration.
as §4

[7] = system: male STD/ddY mice; experiment: Increasing effect on spontaneous locomotor activity, oral administration; format: in vivo; conditions: activity measured for 3 hours
Description: as §5, §2

[8] = system: male STD/ddY mice; experiment: Antagonistic effect on pentobarbital anesthesia, oral administration; format: in vivo; conditions: oral administration 15 min before pentobarbital sodium 55 mg/kg i.p.
Description: as §5
A test compound dissolved in distilled water was orally administered to male STD/ddY mice. Fifteen minutes after the administration of the test compound, pentobarbital sodium was intraperitoneally administered to the mice at a dose of 55 mg/kg. The duration of anesthesia was measured as the time from the disappearance of righting reflex to the recovery thereof. Distilled water was administered to the control group of mice instead of the test compound solution.

[9] = system: male STD/ddY mice; experiment: Acute toxicity (LD50), intravenous; format: in vivo; conditions: mortality 24 hours after administration
Description: A test compound was intravenously administered to male STD/ddY mice and the acute toxicity (LD50) thereof was determined from mortality of mice 24 hours after administration of the test compound.

[10] = system: male JCL:SD rats; experiment: TSH-releasing activity (side effect), serum TSH by radioimmunoassay; format: in vivo; conditions: intravenous administration, serum TSH 15 min after, TRH taken as 1, parallel line assay method
Description: A test compound dissolved in a 0.1% BSA (bovine serum albumin)-containing physiological saline solution was intravenously administered to male JCL:SD rats. Fifteen minutes after the administration, blood was taken from the abdominal aorta under anesthesia. Serum TSH levels were determined by the double-antibody radioimmunoassay method (Midgley et al., Endocrinology., 79, 10 (1966)). The BSA-containing physiological saline solution was administered to the control group of rats instead of the test compound solution.

[11] = system: male JCL:SD rats; conditions: TRH taken as 1; cited from earlier work

| Structure (SMILES) | Potency ratio to TRH, antagonistic effect on pentobarbital anesthesia [1] | Potency ratio to TRH, potentiating effect on action of Dopamine [2] | Potency ratio to TRH, increasing effect on spontaneous locomotor activity [3] | Potency ratio to TRH, antagonistic effect on reserpine-induced hypothermia [4] | LD50 (published data) [5] | Potency ratio to TRH tartrate, antagonistic effect on reserpine-induced hypothermia [6] | Minimum effective dose, increasing effect on spontaneous locomotor activity [7] | Minimum effective dose, antagonistic effect on pentobarbital anesthesia [8] | Therapeutic activity by oral administration | LD50 [9] | Potency ratio to TRH, TSH-releasing activity [10] | Potency ratio to TRH, TSH-releasing activity (published data) [11] |
| --- | --- | --- | --- | --- | --- | --- | --- | --- | --- | --- | --- | --- |
| NC(=O)[C@@H]1CCCN1C(=O)[C@H](Cc1c[nH]cn1)NC(=O)c1cc(=O)[nH]c(=O)[nH]1 [No. 2, Orotyl-L-histidyl-L-prolinamide] | 1.9 | 2.6 | 3.8 | 7.4 | 1200 mg/kg, i.v. | 13.0 |  |  |  |  |  |  |
| NC(=O)[C@@H]1CCCN1C(=O)[C@H](Cc1cnc[nH]1)NC(=O)[C@@H]1CCC(=O)N1.O=C(O)C(O)C(O)C(=O)O [TRH tartrate] |  |  |  |  |  |  | > 100 mg/kg | > 100 mg/kg |  |  |  |  |
| CN1C(=O)C[C@@H](C(=O)N[C@@H](Cc2c[nH]cn2)C(=O)N2CCC[C@H]2C(N)=O)NC1=O [The compound of the present invention, (1-methyl-L-4,5-dihydroorotyl)-L-histidyl-L-prolinamide] | 2.7 | 18.5 | 27.4 | 31.4 |  | 91.3 | 10 mg/kg | 1 mg/kg | excellent therapeutic activity even by oral administration | 1589 mg/kg, i.v. | 1/30 |  |
| NC(=O)[C@@H]1CCCN1C(=O)[C@H](Cc1cnc[nH]1)NC(=O)[C@@H]1CCC(=O)N1 [TRH, L-pyroglutamyl-L-histidyl-L-prolinamide] |  |  |  |  | 1450 mg/kg, i.v. |  |  |  | no substantial therapeutic effects |  |  |  |
| NC(=O)[C@@H]1CCCN1C(=O)[C@H](Cc1c[nH]cn1)NC(=O)[C@@H]1CCC(=O)O1 [No. 1, (2,3,4,5-tetrahydro-2-oxo-L-5-furancarbonyl)-L-histidyl-L-prolinamide] | 1.3 | 2.5 | 3.5 | 5.7 |  | 3.4 |  |  |  |  |  | 1/40 |
